Test results from US20240041042A1, “1-(PYRIDYL)-5-AZINYLPYRAZOLE DERIVATIVES, AND THEIR USE FOR CONTROL OF UNDESIRED PLANT GROWTH” (Bayer Aktiengesellschaft, priority 2020, published 2024).
Where two headings read alike, the source gives them in different places.

Legend:
Assay type in all cases: in vivo
[1] = test system: Verconica persica (VERPE); test: Post-emergence herbicidal action against VERPE
In short: (§1)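 Greenhouse plants sprayed at the one-leaf stage, 2–3 weeks after sowing, with WP or EC formulations plus 0.5% additive at 600 l/ha water. Activity rated visually after about 3 weeks versus untreated controls (100% = dead, 0% = like control), at 320 g/ha or lower.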

[2] = test system: Echinochloa crus-galli (ECHCG); test: Pre-emergence herbicidal action against ECHCG; conditions: dosage 320 g/ha
In short: (§2)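 Seeds sown in pots and covered with soil; WP or EC formulations sprayed onto the soil surface at 600 l/ha water with 0.5% additive, at 320 g/ha or lower. Greenhouse growth for about 3 weeks, then visual scoring as % effect against untreated controls (100% = plants dead).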

[3] = test system: Polygonum convolvulus (POLCO); test: Pre-emergence herbicidal action against POLCO; conditions: dosage 320 g/ha
In short: as §2

[4] = test system: Matricaria inodora (MATIN); test: Pre-emergence herbicidal action against MATIN; conditions: dosage 320 g/ha
In short: as §2

[5] = test system: Amaranthus retroflexus (AMARE); test: Post-emergence herbicidal action against AMARE
In short: as §1

[6] = test system: Pharbitis purpurea (PHBPU); test: Pre-emergence herbicidal action against PHBPU; conditions: dosage 320 g/ha
In short: as §2

[7] = test system: Digitaria sanguinalis (DIGSA); test: Post-emergence herbicidal action against DIGSA; conditions: visual rating about 3 weeks after treatment
In short: as §1

[8] = test system: Zea mays (ZEAMX); conditions: pre-emergence, 80 g/ha, crop plant compatibility, in comparison to untreated controls
In short: (§3)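 Crop injury rated visually in percent against untreated plants roughly 3 weeks after treatment (0% no effect, 100% plants dead). Compounds, as WP or EC with 0.5% additive in 600 l/ha water, were applied to the covering soil right after sowing; greenhouse growth. Suffixes a, b, c denote different dosages.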

[9] = test system: Oryza sativa (ORYSA); conditions: pre-emergence, 80 g/ha, crop plant compatibility, in comparison to untreated controls
In short: as §3

[10] = test system: Alopecurus myosuroides (ALOMY); test: Pre-emergence herbicidal action against ALOMY; conditions: scored visually after about 3 weeks, 100% = plants have died
In short: as §2

[11] = test system: Viola tricolor (VIOTR); test: Pre-emergence herbicidal action against VIOTR; conditions: 320 g/ha, Viola tricolor
In short: as §2

[12] = test system: Alopecurus myosuroides (ALOMY); test: Post-emergence herbicidal action against ALOMY; conditions: visual rating about 3 weeks after treatment vs untreated controls (100% = plants have died, 0% = like control plants)
In short: as §1

[13] = test system: Amaranthus retroflexus (AMARE); test: Pre-emergence herbicidal action against AMARE; conditions: visual scoring after about 3 weeks vs untreated controls
In short: as §2

[14] = test system: Setaria viridis (SETVI); test: Pre-emergence herbicidal action against SETVI
In short: as §2

[15] = test system: Digitaria sanguinalis (DIGSA); test: Pre-emergence herbicidal action against DIGSA
In short: as §2

[16] = test system: Verconica persica (VERPE); test: Pre-emergence herbicidal action against VERPE; conditions: dosage 320 g/ha
In short: as §2

[17] = test system: Zea mays (ZEAMX); conditions: for Post-emergence action against ZEAMX in %: crop plant compatibility, effect vs untreated controls
In short: (§4)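 Foliar application at the one-leaf stage: WP/EC formulation, 0.5% additive, 600 l/ha water. Greenhouse-grown in sandy loam. Endpoint is visual % injury relative to untreated controls at about 3 weeks.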

[18] = test system: Oryza sativa (ORYSA); conditions: crop plant compatibility
In short: as §4

[19] = test system: Lolium rigidum (LOLRI); test: Pre-emergence herbicidal action against LOLRI
In short: as §2

[20] = test system: Viola tricolor (VIOTR); test: Post-emergence herbicidal action against VIOTR
In short: as §1

[21] = test system: Polygonum convolvulus (POLCO); test: Post-emergence herbicidal action against POLCO; conditions: dosage 320 g/ha
In short: as §1

[22] = test system: Pharbitis purpurea (PHBPU); test: Post-emergence herbicidal action against PHBPU
In short: as §1

[23] = test system: Matricaria inodora (MATIN); test: Post-emergence herbicidal action against MATIN; conditions: dosage 320 g/ha
In short: as §1

[24] = test system: Echinochloa crus-galli (ECHCG); test: Post-emergence herbicidal action against ECHCG; conditions: dosage 320 g/ha
In short: as §1

[25] = test system: Lolium rigidum (LOLRI); test: Post-emergence herbicidal action against LOLRI; conditions: dosage 320 g/ha
In short: as §1

[26] = test system: Avena fatua (AVEFA); test: Post-emergence herbicidal action against AVEFA; conditions: visual rating about 3 weeks after treatment
In short: as §1

[27] = test system: Setaria viridis (SETVI); test: Post-emergence herbicidal action against SETVI
In short: as §1

[28] = 80 g/ha, visual rating about 3 weeks after treatment vs untreated controls (100% = plants have died, 0% = like control plants)
[29] = 80 g/ha, visual scoring after about 3 weeks vs untreated controls
[30] = 80 g/ha, effect in comparison to untreated controls
[31] = 320 g/ha, visual rating about 3 weeks after treatment

Pre-emergence action against ZEAMX in % [8] [%] | Pre-emergence action against ORYSA in % [9] [%] | Post-emergence action against ZEAMX in % ([17]; 80 g/ha) [%] | Post-emergence action against ORYSA in % [18, 30] [%] | Structure (SMILES) | Pre-emergence action against ECHCG in % [2] [%] | Pre-emergence action against MATIN in % [4] [%] | Post-emergence action against AMARE in % [5, 28] [%] | Pre-emergence action against ALOMY ([10]; 320 g/ha) [%] | Pre-emergence action against VIOTR in % [11] [%] | Post-emergence action against ALOMY in % ([12]; 80 g/ha) [%] | Pre-emergence action against AMARE in % ([13]; 320 g/ha) [%] | Pre-emergence action against SETVI in % ([14]; dosage 320 g/ha) [%] | Pre-emergence action against DIGSA in % [15, 29] [%] | Pre-emergence action against DIGSA in % ([15]; dosage 320 g/ha) [%] | Pre-emergence action against VERPE in % [16] [%] | Pre-emergence action against LOLRI in % ([19]; dosage 320 g/ha) [%] | Post-emergence action against VERPE in % ([1]; 320 g/ha, VERPE) [%] | Post-emergence action against VIOTR in % ([20]; 320 g/ha) [%] | Post-emergence action against AMARE in % [5, 31] [%] | Post-emergence action against POLCO in % [21] [%] | also measured
20 | 10 | 10 | 0 | O=C(COc1nn(-c2ccccn2)c(-c2ccc(F)nc2)c1Br)OCC1CCOC1 (stereo not drawn) [Example I-90] | 100 | 90 | 80 | 100 | 90 | 90 | 100 | 100 | 100 | 100 | 90 | 100 | – | – | – | – | Post-emergence action against VERPE in % ([1]; dosage 80 g/ha): 90%; Pre-emergence action against POLCO in % [3]: 90%; Pre-emergence action against PHBPU in % [6]: 90%; Post-emergence action against DIGSA in % ([7]; 80 g/ha): 90%; Pre-emergence action against ALOMY ([10]; 80 g/ha): 90%; Pre-emergence action against AMARE in % ([13]; 80 g/ha): 100%; Pre-emergence action against SETVI in % ([14]; dosage 80 g/ha): 90%; Post-emergence action against ZEAMX in % (crop plant compatibility) ([17]; 20 g/ha, ZEAMX, effect in comparison to untreated controls): 0%; Post-emergence action against ORYSA in % ([18]; 20 g/ha, effect vs untreated controls): 0%
20 | 0 | 10 | 0 | COC(=O)CCOC(=O)COc1nn(-c2ccccn2)c(-c2ccc(Cl)nc2)c1Br [Example I-246] | – | – | – | – | – | – | 90 | – | – | 90 | 80 | – | 80 | 80 | 80 | 80 | Post-emergence action against VIOTR in % ([20]; 80 g/ha): 80%; Post-emergence action against PHBPU in % ([22]; dosage 80 g/ha): 80%; Post-emergence action against PHBPU in % ([22]; dosage 320 g/ha): 80%; Post-emergence action against ORYSA in % ([18]; 320 g/ha, effect in comparison to untreated controls): 10%; Post-emergence action against MATIN in % [23]: 80%
10 | 20 | 0 | 20 | O=C(O)COc1nn(-c2nc(F)ccc2F)c(-c2ccc(F)nc2)c1C1CC1 [Example I-302] | 90 | 90 | 80 | 90 | 90 | 80 | 90 | 100 | 90 | 100 | 90 | 90 | 80 | 80 | 90 | 80 | Post-emergence action against ECHCG in % [24]: 80%; Post-emergence action against DIGSA in % ([7]; 320 g/ha): 80%; Post-emergence action against LOLRI in % [25]: 80%; Post-emergence action against AVEFA in % ([26]; 80 g/ha): 80%; Post-emergence action against AVEFA in % ([26]; 320 g/ha): 80%; Post-emergence action against ALOMY in % ([12]; 320 g/ha): 90%; Post-emergence action against PHBPU in % ([22]; dosage 320 g/ha): 80%; Post-emergence action against SETVI in % ([27]; dosage 80 g/ha): 80%; Post-emergence action against SETVI in % ([27]; dosage 320 g/ha): 90%; Post-emergence action against ZEAMX in % ([17]; 320 g/ha): 10%; Pre-emergence action against LOLRI in % ([19]; dosage 80 g/ha): 80%
